IC50 data for 12 compounds are collected here from patent US8569344B2, “N-piperidinyl acetamide derivatives as calcium channel blockers” (Zalicus Pharmaceuticals Ltd., priority 2008, dated 2013).

Structures are written as SMILES.

Assay [1] has as its target T1, human α1H T-type channels (Homo sapiens, UniProt O95180).
T1 construct: expressed in transfected cells; host or cells: HEK 293
Put plainly: T-type calcium channel block, whole cell patch clamp in HEK cells (α1H). The class given is cell-based. The following applies: HEK cells, patch clamp, mainly non-inactivated protocol; values above 10 μM shown as 10 μM; read-out: T-type Calcium Channel Block α1H IC50.

In assay [2] the target is T2, human α1G T-type channels (Homo sapiens, UniProt O43497).
T2 construct: expressed in transfected cells; host or cells: HEK 293
T2 sequence (O43497 whole entry): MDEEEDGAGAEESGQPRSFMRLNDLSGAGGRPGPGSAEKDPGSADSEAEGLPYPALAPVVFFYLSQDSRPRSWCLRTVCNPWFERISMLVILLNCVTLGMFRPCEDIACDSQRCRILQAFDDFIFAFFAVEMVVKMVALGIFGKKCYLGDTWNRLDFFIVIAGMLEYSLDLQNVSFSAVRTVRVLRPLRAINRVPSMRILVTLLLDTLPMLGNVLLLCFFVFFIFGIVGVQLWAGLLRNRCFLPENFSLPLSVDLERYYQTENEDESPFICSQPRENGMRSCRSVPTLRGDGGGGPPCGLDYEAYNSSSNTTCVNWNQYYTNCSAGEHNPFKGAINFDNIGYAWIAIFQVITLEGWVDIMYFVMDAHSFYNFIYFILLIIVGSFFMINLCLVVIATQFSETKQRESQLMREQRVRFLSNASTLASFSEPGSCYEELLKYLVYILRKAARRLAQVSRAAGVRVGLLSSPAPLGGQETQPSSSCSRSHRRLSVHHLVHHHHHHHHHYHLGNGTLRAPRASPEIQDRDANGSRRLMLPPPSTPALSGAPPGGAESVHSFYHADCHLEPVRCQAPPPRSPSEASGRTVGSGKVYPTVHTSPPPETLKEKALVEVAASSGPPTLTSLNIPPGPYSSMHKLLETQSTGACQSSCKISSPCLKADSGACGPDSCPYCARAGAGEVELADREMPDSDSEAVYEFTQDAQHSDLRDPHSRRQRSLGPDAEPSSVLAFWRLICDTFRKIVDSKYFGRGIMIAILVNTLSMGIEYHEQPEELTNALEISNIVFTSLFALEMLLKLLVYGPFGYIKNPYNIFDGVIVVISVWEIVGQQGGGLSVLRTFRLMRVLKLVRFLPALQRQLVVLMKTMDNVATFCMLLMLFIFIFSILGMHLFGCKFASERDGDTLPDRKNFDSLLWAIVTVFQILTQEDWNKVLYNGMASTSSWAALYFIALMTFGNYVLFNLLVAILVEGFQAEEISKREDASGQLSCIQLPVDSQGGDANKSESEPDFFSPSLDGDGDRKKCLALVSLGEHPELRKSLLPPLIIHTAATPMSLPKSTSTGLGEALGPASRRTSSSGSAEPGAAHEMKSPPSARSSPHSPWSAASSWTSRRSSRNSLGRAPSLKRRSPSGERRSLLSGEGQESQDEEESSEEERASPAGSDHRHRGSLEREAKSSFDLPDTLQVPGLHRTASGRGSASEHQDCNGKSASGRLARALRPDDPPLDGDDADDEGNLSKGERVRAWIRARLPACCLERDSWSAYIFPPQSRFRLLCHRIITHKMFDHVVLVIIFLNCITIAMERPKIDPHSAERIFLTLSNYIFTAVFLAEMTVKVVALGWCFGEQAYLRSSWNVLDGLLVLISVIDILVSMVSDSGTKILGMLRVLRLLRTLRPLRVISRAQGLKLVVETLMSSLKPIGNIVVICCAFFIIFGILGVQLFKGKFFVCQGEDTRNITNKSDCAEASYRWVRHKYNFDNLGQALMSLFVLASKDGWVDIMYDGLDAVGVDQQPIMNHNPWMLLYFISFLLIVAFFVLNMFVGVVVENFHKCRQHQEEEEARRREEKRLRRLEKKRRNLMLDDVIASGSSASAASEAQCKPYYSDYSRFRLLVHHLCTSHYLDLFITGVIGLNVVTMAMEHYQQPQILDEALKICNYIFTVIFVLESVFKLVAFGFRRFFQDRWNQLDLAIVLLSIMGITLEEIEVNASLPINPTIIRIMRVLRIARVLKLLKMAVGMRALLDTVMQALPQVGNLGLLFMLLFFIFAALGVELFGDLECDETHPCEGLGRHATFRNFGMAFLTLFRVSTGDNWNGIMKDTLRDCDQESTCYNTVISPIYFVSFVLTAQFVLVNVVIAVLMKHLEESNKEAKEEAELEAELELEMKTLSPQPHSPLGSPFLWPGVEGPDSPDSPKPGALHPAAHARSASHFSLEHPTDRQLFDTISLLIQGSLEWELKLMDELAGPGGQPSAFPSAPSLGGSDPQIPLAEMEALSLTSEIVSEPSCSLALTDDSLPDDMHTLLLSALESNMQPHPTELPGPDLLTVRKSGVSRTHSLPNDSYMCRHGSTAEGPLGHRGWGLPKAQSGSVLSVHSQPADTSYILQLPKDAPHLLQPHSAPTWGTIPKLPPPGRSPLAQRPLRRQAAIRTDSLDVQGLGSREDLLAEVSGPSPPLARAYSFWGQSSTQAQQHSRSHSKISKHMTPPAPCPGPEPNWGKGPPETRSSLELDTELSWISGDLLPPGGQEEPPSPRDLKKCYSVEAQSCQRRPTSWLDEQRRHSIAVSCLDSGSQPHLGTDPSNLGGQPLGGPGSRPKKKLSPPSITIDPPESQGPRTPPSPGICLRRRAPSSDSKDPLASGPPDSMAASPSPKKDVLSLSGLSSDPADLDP
The assay can be described thus: T-type calcium channel block, whole cell patch clamp in HEK cells (α1G). The class given is cell-based. As to conditions: HEK cells, patch clamp, mainly non-inactivated protocol; values above 10 μM shown as 10 μM, below 0.30 μM shown as 0.30 μM; read-out: T-type Calcium Channel Block α1G IC50. A general note: Patch clamp records ionic current or voltage across a cell membrane.

T1 sequence (O95180 whole entry): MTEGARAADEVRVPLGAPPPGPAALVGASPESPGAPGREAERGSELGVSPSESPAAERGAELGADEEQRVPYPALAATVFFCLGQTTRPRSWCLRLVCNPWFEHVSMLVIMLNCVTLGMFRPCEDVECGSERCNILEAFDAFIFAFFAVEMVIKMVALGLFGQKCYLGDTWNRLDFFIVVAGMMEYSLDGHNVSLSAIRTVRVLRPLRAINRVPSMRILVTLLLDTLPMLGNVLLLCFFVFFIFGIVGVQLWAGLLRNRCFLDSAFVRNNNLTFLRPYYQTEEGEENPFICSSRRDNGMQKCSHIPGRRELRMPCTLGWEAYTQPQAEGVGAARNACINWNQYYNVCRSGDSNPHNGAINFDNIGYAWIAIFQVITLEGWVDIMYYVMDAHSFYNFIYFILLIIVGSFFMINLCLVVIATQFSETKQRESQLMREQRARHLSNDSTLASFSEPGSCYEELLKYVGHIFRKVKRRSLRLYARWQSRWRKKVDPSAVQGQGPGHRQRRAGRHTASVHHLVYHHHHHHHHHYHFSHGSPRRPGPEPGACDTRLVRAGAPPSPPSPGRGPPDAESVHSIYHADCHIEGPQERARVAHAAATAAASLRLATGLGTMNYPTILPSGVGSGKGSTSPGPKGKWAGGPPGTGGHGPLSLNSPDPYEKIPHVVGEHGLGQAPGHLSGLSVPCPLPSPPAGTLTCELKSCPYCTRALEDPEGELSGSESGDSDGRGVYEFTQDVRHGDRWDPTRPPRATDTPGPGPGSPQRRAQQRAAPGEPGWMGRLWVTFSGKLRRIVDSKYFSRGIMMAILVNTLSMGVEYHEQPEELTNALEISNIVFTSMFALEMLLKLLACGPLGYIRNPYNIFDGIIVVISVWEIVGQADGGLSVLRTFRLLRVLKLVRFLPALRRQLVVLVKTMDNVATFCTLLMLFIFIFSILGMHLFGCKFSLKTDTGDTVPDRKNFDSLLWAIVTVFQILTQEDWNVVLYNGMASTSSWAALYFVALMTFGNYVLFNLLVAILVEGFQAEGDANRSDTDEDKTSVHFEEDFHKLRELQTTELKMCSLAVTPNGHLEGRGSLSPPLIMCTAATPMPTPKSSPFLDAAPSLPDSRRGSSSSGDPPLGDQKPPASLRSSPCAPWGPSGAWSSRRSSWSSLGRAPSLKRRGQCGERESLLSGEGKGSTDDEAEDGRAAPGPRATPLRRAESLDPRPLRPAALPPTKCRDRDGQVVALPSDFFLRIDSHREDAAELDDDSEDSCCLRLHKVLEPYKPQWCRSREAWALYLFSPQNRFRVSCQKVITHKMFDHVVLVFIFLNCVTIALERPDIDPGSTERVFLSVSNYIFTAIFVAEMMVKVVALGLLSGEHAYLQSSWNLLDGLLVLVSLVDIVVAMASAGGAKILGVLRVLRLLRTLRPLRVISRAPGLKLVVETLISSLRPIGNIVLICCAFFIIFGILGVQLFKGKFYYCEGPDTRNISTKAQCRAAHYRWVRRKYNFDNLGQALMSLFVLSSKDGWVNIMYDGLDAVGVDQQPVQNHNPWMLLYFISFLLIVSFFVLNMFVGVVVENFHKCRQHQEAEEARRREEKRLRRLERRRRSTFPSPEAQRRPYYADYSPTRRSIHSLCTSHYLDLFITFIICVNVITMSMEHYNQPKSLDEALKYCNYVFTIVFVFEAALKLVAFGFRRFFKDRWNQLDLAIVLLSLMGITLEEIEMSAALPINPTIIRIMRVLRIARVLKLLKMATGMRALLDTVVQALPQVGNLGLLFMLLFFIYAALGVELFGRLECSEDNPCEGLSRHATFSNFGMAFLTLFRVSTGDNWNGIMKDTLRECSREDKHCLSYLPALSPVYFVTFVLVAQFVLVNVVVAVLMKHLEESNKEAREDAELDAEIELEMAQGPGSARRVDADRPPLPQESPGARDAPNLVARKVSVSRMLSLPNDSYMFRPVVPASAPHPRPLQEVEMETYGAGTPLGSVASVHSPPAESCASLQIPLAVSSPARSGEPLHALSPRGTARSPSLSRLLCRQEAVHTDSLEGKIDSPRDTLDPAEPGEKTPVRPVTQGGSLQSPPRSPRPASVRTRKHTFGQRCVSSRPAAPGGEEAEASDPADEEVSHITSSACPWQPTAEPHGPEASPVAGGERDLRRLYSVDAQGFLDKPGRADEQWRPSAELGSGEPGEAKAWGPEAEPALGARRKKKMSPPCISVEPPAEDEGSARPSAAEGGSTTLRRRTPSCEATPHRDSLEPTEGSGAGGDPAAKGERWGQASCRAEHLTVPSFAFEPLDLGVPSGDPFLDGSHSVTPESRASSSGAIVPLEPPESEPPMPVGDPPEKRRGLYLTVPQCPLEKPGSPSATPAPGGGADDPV

The term IC50 denotes the point on the concentration scale where inhibition reaches its midpoint. Regarding `CC(C)(C)NCC(=O)N1CCC(CNC(=O)c2cc(C(F)(F)F)cc(C(F)(F)F)c2)CC1` [Compound 239, N-((1-(2-(tert-butylamino)acetyl)piperidin-4-yl)methyl)-3,5-bis(trifluoromethyl)benzamide], the IC50 is 1730 nM in assay [1] and less than 300 nM in assay [2].

As to `O=C(NCC1CCN(C(=O)CN2CCCC(O)C2)CC1)c1cc(C(F)(F)F)cc(C(F)(F)F)c1` (stereo not drawn) [Compound 240, N-((1-(2-(3-hydroxypiperidin-1-yl)acetyl)piperidin-4-yl)methyl)-3,5-bis(trifluoromethyl)benzamide], the IC50 in assay [1] and in assay [2] was greater than 10000 nM throughout.

For the compound `CCCCCNCC(=O)N1CCC(CNC(=O)c2cc(C(F)(F)F)cc(C(F)(F)F)c2)CC1` [Compound 241, N-((1-(2-(pentylamino)acetyl)piperidin-4-yl)methyl)-3,5-bis(trifluoromethyl)benzamide], the IC50 is 520 nM in assay [1] and less than 300 nM in assay [2].

On to `CCC1CCCCN1CC(=O)N1CCC(CNC(=O)c2cc(C(F)(F)F)cc(C(F)(F)F)c2)CC1` (stereo not drawn) [Compound 243, N-((1-(2-(2-ethylpiperidin-1-yl)acetyl)piperidin-4-yl)methyl)-3,5-bis(trifluoromethyl)benzamide], for which the figures for the IC50 in assay [1] and in assay [2] were 810 nM and 530 nM, respectively.

For the compound `O=C(NCC1CCN(C(=O)CNCCCN2CCOCC2)CC1)c1cc(C(F)(F)F)cc(C(F)(F)F)c1` [Compound 244, N-((1-(2-(3-morpholinopropylamino)acetyl)piperidin-4-yl)methyl)-3,5-bis(trifluoromethyl)benzamide], the IC50 in assay [1] was greater than 10000 nM; in assay [2], 7190 nM.

Take `CN(CC(=O)N1CCC(CNC(=O)c2cc(C(F)(F)F)cc(C(F)(F)F)c2)CC1)C1CCCCC1` [Compound 246, N-((1-(2-(cyclohexyl(methyl)amino)acetyl)piperidin-4-yl)methyl)-3,5-bis(trifluoromethyl)benzamide]: the IC50 stood at 1130 nM in assay [1] and 1310 nM in assay [2].

As for `O=C(NCC1CCN(C(=O)CNC2CCCC2)CC1)c1cc(C(F)(F)F)cc(C(F)(F)F)c1` [Compound 247, N-((1-(2-(cyclopentylamino)acetyl)piperidin-4-yl)methyl)-3,5-bis(trifluoromethyl)benzamide], the values for the IC50 in assay [1] and in assay [2] were 500 nM and less than 300 nM, respectively.

Regarding `CC1CCCCC1NCC(=O)N1CCC(CNC(=O)c2cc(C(F)(F)F)cc(C(F)(F)F)c2)CC1` (stereo not drawn) [Compound 248, N-((1-(2-(2-methylcyclohexylamino)acetyl)piperidin-4-yl)methyl)-3,5-bis(trifluoromethyl)benzamide], the IC50 in assay [1] was 480 nM; in assay [2] it was less than 300 nM.

Consider `O=C(NCC1CCN(C(=O)CNC2CCCCC2)CC1)c1cc(C(F)(F)F)cc(C(F)(F)F)c1` [Compound 249, N-((1-(2-(cyclohexylamino)acetyl)piperidin-4-yl)methyl)-3,5-bis(trifluoromethyl)benzamide], for which the IC50 in assay [1] is 580 nM; in assay [2], less than 300 nM.

Consider `COC1CCN(CC(=O)N2CCC(CNC(=O)c3cc(C(F)(F)F)cc(C(F)(F)F)c3)CC2)CC1` [Compound 251, N-((1-(2-(4-methoxypiperidin-1-yl)acetyl)piperidin-4-yl)methyl)-3,5-bis(trifluoromethyl)benzamide], for which the IC50 in assay [1] and in assay [2] was greater than 10000 nM each time.

Regarding `C[C@@H]1CCCCN1CC(=O)N1CCC(CNC(=O)c2cc(C(F)(F)F)cc(C(F)(F)F)c2)CC1` [Compound 252, (R)-N-((1-(2-(2-methylpiperidin-1-yl)acetyl)piperidin-4-yl)methyl)-3,5-bis(trifluoromethyl)benzamide], the IC50 in assay [1] was 2340 nM; in assay [2], 2430 nM.

Consider `CCC1CCCN1CC(=O)N1CCC(CNC(=O)c2cc(C(F)(F)F)cc(C(F)(F)F)c2)CC1` (stereo not drawn) [Compound 253, N-((1-(2-(2-ethylpyrrolidin-1-yl)acetyl)piperidin-4-yl)methyl)-3,5-bis(trifluoromethyl)benzamide], for which the IC50 came to 1310 nM in assay [1] and 480 nM in assay [2].
